Measured values: ChEMBL document CHEMBL1150137, “Nanjiols A-C, new steroids from the Chinese soft coral Nephthea bayeri” (J Nat Prod, 2002)
Converted amounts (≈) assume the structure as drawn.

Tested on: HL-60
Assay: Cytotoxicity against human HL60 cells
Format: functional, cell-based

CC(=O)O[C@H]1C[C@H]2[C@@H]3CCC4=CC(=O)CC[C@]4(C)[C@H]3C[C@@H](OC(C)=O)[C@]2(C)[C@H]1[C@@](C)(O)CCCC(C)C [NANJIOL B]
IC50: 5 µg/mL (≈ 9.68 µM)
